Assay results published in patent US7314861B2, “Melanin-concentrating hormone analogs” (priority 2001, dated 2008).
Where a SMILES comes first, the peptide text is derived from it. Bridges are numbered along the chain shown (N, C = ends). [ ]: non-standard residue; d: D form. hArg = N=C(N)NCCCC[C@H](N)C(=O)O

What was measured:
human MCH-2R = human MCH-2R (Homo sapiens, UniProt Q969V1); experiment: Radiolabeled MCH-R binding assay (SPA based), MCH-2R; settings: MCH-2R IC50 (nM)
Procedure: (§1) Cell membranes were prepared on ice. Each T-75 flask was rinsed twice with 10 ml of Enzyme-free Cell Dissociation Buffer (Specialty Media, Lavallette, N.J.), and the cell monolayer was detached in an additional 10 ml of Enzyme-free Cell Dissociation Buffer by incubation at room temperature for 10 minutes. Dissociated cells were centrifuged (500×g for 10 minutes at 4° C.), resuspended in 5 ml homogenization buffer (10 mM Tris-HCl, pH 7.4, 0.01 mM Pefabloc, 10 μM phosphoramidon, 40 μg/ml bacitracin) and then homogenized using a glass homogenizer (10-15 strokes). The homogenate was centrifuged for 10 minutes (1,000×g at 4° C.). The resulting supernatant was then centrifuged at 38,700×g for 15 minutes at 4° C. Pelleted membranes were resuspended (passed through 25 gauge needle 5 times), snap-frozen on liquid nitrogen, and stored at −80° C. until use.
(§2) For the SPA-based assay, WGA-PVT beads (NEN Life Sciences Products) were resuspended in Dulbecco's PBS with calcium and magnesium (500 mg beads in 4 ml PBS). […] The suspension was mixed gently for 20 minutes, 12.3 ml of assay buffer and protease inhibitors were added (final concentration given): 2 μg/ml leupeptin, 10 μM phosphoramidon, 40 μg/ml bacitracin, 5 μg/ml aprotinin, 0.1 mM Pefabloc.
(§3) Coated beads were kept on ice until use. […] Binding reactions were allowed to proceed at room temperature for 3 hours. Quantitation was performed by scintillation counting (TopCount device).

human MCH-R2 = human MCH-R2 (Homo sapiens, UniProt Q969V1); experiment: Aequorin bioluminescence functional assay, MCH-2R; settings: for EC50: MCH-2R EC50 (nM), 293-AEQ17 cells; for EC50 / MCH-2R Activation %: aequorin functional assay; for MCH-2R Activation %: % Activation at 10 μM; for selective activity at MCH-2R over MCH-1R: greater binding and/or activation at MCH-2R than at MCH-1R
human MCH-R2, sequence (Q969V1 whole entry): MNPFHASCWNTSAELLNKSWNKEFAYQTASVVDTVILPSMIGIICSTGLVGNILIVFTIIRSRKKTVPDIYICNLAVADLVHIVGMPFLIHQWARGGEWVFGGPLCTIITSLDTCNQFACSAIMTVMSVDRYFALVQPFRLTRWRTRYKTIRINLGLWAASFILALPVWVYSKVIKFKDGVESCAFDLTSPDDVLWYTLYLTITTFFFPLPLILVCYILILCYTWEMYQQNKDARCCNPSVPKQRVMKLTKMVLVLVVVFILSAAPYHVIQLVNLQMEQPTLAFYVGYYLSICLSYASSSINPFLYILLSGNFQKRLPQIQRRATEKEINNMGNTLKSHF
Procedure: (§4) The aequorin bioluminescence assay can be used to measure the activity of G protein-coupled receptors that couple through the Gα protein subunit family consisting of Gq and G11. Such coupling leads to phospholipase C activation, intracellular calcium mobilization and protein kinase C activation.
(§5) Following approximately 40 hours of expression the apo-aequorin in the cells was charged for 4 hours with coelenterazine (10 μM) under reducing conditions (300 μM reduced glutathione) in ECB buffer (140 mM NaCl, 20 mM KCl, 20 mM HEPES-NaOH [pH=7.4], 5 mM glucose, 1 mM MgCl2, 1 mM CaCl2, 0.1 mg/ml bovine serum albumin).
(§6) The cells were harvested, washed once in ECB medium and resuspended to 500,000 cells/ml. 100 μl of cell suspension (corresponding to 5×10^4 cells) was then injected into the test plate containing MCH or MCH analogs, and the integrated light emission was recorded over 30 seconds, in 0.5 second units. 20 μL of lysis buffer (0.1% final Triton X-100 concentration) was then injected and the integrated light emission recorded over 10 seconds, in 0.5 second units. The “fractional response” values for each well were calculated by taking the ratio of the integrated response to the initial challenge to the total integrated luminescence including the Triton X-100 lysis response.

human MCH-1R [1] = biological target: T1, human MCH-1R (Homo sapiens, UniProt Q99705); experiment: Aequorin bioluminescence functional assay, MCH-1R; settings: for MCH-1R Activation %: % Activation at 10 μM, aequorin functional assay
T1 sequence (Q99705 whole entry): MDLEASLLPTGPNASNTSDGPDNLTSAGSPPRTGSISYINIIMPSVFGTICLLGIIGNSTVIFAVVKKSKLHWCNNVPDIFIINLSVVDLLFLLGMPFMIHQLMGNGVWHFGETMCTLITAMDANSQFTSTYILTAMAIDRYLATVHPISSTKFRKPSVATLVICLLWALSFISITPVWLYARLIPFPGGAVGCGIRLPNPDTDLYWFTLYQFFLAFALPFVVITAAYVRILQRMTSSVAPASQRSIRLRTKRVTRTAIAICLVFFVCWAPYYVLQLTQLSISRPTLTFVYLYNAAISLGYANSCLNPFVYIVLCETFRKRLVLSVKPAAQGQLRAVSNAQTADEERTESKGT
Procedure: as §4, §5, §6

human MCH-1R [2] = biological target: T1, human MCH-1R; experiment: Radiolabeled MCH-R binding assay (SPA based), MCH-1R
Procedure: as §1, §2, §3

[3] = Table 1, inhibition of [125I]-human MCH (Phe13, Tyr19) binding

human MCH-2R, sequence (Q969V1 whole entry): as the sequence (Q969V1 whole entry) above

SMILES	IC50 (human MCH-2R; [3]) [nM]	IC50 (human MCH-2R; Table 3) [nM]	EC50 (human MCH-R2; Table 1) [nM]	MCH-2R Activation % (human MCH-R2; Table 3) [%]	MCH-1R Activation % (human MCH-1R [1]; Table 3) [%]	MCH-2R Activation % (human MCH-R2; Table 1) [%]	selective activity at MCH-2R over MCH-1R (human MCH-R2)	MCH-1R Activation % (human MCH-1R [1]; Table 1) [%]	other results
CSCC[C@@H]1NC(=O)[C@@H](NC(=O)[C@H](CCCNC(=N)N)NC(=O)[C@H](CC(C)C)NC(=O)[C@H](CCSC)NC(=O)[C@H](CC(=O)O)NC(=O)[C@H](Cc2ccccc2)NC(=O)[C@@H](N)CC(=O)O)CSSC[C@@H](C(=O)N[C@@H](Cc2c[nH]c3ccccc23)C(=O)N[C@@H](CCC(N)=O)C(=O)N[C@H](C(=O)O)C(C)C)NC(=O)[C@@H]2CCCN2C(=O)[C@H](CCCNC(=N)N)NC(=O)[C@H](Cc2ccc(O)cc2)NC(=O)[C@H](C(C)C)NC(=O)[C@H](CCCNC(=N)N)NC(=O)CNC(=O)[C@H](CC(C)C)NC1=O [compound 1]	0.5	0.9	30.7	100	100	–	–	–	IC50 (human MCH-2R; Table 2): 0.5 nM; MCH-2R Activation % (human MCH-R2; Table 2): 100%; MCH-1R Activation % (human MCH-1R [1]; Table 2): 100%
CC(=O)N[C@@H](CCCNC(=N)N)C(=O)N[C@H]1CSSC[C@@H](C(N)=O)NC(=O)[C@@H]2CCCN2C(=O)[C@H](CCCNC(=N)N)NC(=O)[C@H](Cc2ccc(O)cc2)NC(=O)[C@H](C(C)C)NC(=O)[C@H](CCCNC(=N)N)NC(=O)CNC(=O)[C@H](CC(C)C)NC(=O)[C@H](C)NC1=O [compound 4] (Ac-RCALGRVYRPC-NH2; disulfide 2-11)	–	–	12	–	–	104	selectively active	42	IC50 (human MCH-1R [2]): 15 nM
CSCC[C@@H]1NC(=O)[C@@H](NC(=O)[C@H](CCCNC(=N)N)NC(C)=O)CSSC[C@@H](C(N)=O)NC(=O)[C@@H]2CCCN2C(=O)[C@H](CCCNC(=N)N)NC(=O)[C@H](Cc2ccc(O)cc2)NC(=O)[C@H](C(C)C)NC(=O)[C@H](CCCNC(=N)N)NC(=O)[C@@H](CC(N)=O)NC(=O)[C@H](CC(C)C)NC1=O [compound 18]	2.3	–	24	–	–	106	selectively active	39	–
CSCC[C@@H]1NC(=O)[C@@H](NC(=O)[C@H](CCCNC(=N)N)NC(C)=O)CSSC[C@@H](C(N)=O)NC(=O)[C@@H]2CCCN2C(=O)[C@H](CCCNC(=N)N)NC(=O)[C@H](Cc2ccc(O)cc2)NC(=O)[C@H](C(C)C)NC(=O)[C@H](CCCNC(=N)N)NC(=O)[C@@H](CO)NC(=O)[C@H](CC(C)C)NC1=O [compound 19]	–	–	–	–	–	113	selectively active	47	IC50 (human MCH-1R [2]): 31 nM
CSCC[C@@H]1NC(=O)[C@@H](NC(=O)[C@H](CCCNC(=N)N)NC(C)=O)CSSC[C@@H](C(N)=O)NC(=O)[C@@H]2CCCN2C(=O)[C@H](CCCNC(=N)N)NC(=O)[C@H](Cc2ccc(O)cc2)NC(=O)[C@H](C(C)C)NC(=O)[C@H](C)NC(=O)CNC(=O)[C@H](CC(C)C)NC1=O [compound 23] (Ac-RCMLGAVYRPC-NH2; disulfide 2-11)	–	–	> 1000	–	–	36	selectively active	–	IC50 (human MCH-1R [2]): > 1000 nM; EC50 (human MCH-1R [1]): > 10000 nM
CCCC[C@@H]1NC(=O)CNC(=O)[C@H](CC(C)C)NC(=O)[C@H](CCSC)NC(=O)[C@@H](NC(=O)[C@H](CCCNC(=N)N)NC(C)=O)CSSC[C@@H](C(N)=O)NC(=O)[C@@H]2CCCN2C(=O)[C@H](CCCNC(=N)N)NC(=O)[C@H](Cc2ccc(O)cc2)NC(=O)[C@H](C(C)C)NC1=O [compound 26]	9	–	–	–	–	34	selectively active	–	EC50 (human MCH-1R [1]): > 1000 nM
CSCC[C@@H]1NC(=O)[C@@H](NC(=O)[C@H](CCCNC(=N)N)NC(C)=O)CSSC[C@@H](C(N)=O)NC(=O)[C@@H]2CCCN2C(=O)[C@H](CCCNC(=N)N)NC(=O)[C@H](Cc2ccccc2)NC(=O)[C@H](C(C)C)NC(=O)[C@H](CCCNC(=N)N)NC(=O)CNC(=O)[C@H](CC(C)C)NC1=O [compound 27]	1.5	–	12	–	–	94	–	96	–
CSCC[C@@H]1NC(=O)[C@@H](NC(=O)[C@H](CCCNC(=N)N)NC(C)=O)CSSC[C@@H](C(N)=O)NC(=O)[C@@H]2CCCN2C(=O)[C@H](CCCNC(=N)N)NC(=O)[C@H](Cc2ccc(O)cc2)NC(=O)[C@H](C(C)C)NC(=O)[C@H](CCCCNC(=N)N)NC(=O)[C@@H](C)NC(=O)[C@H](CC(C)C)NC1=O [compound 36] (Ac-RCML[dA][hArg]VYRPC-NH2; disulfide 2-11)	0.9	–	19	–	–	74	selectively active	0.1	EC50 (human MCH-1R [1]): > 10000 nM
CSCC[C@H](NC(=O)[C@H](CC(=O)O)NC(=O)[C@H](Cc1ccccc1)NC(=O)[C@@H](N)CC(=O)O)C(=O)N[C@@H](CC(C)C)C(=O)N[C@@H](CCCNC(=N)N)C(=O)N[C@H]1CSSC[C@@H](C(=O)N[C@@H](Cc2c[nH]c3ccccc23)C(=O)N[C@@H](CCC(N)=O)C(=O)N[C@H](C(=O)O)C(C)C)NC(=O)[C@@H]2CCCN2C(=O)[C@H](CCCNC(=N)N)NC(=O)[C@H](Cc2ccc(O)cc2)NC(=O)[C@H](C(C)C)NC(=O)[C@H](CCCNC(=N)N)NC(=O)CNC(=O)[C@H](CC(C)C)NC(=O)[C@H](C)NC1=O [compound 47] (H-DFDMLRCALGRVYRPCWQV-OH; disulfide 7-16; N-terminus and C-terminus assumed)	–	40	–	94	56	–	–	–	–
CSCC[C@@H]1NC(=O)[C@@H](NC(=O)[C@H](CCCNC(=N)N)NC(=O)[C@H](CC(C)C)NC(=O)[C@H](CCSC)NC(=O)[C@H](CC(=O)O)NC(=O)[C@H](Cc2ccccc2)NC(=O)[C@@H](N)CC(=O)O)CSSC[C@@H](C(=O)N[C@@H](Cc2c[nH]c3ccccc23)C(=O)N[C@@H](CCC(N)=O)C(=O)N[C@H](C(=O)O)C(C)C)NC(=O)[C@H](C)NC(=O)[C@H](CCCNC(=N)N)NC(=O)[C@H](Cc2ccc(O)cc2)NC(=O)[C@H](C(C)C)NC(=O)[C@H](CCCNC(=N)N)NC(=O)CNC(=O)[C@H](CC(C)C)NC1=O [compound 53] (H-DFDMLRCMLGRVYRACWQV-OH; disulfide 7-16; N-terminus and C-terminus assumed)	–	19	–	96	99	–	–	–	–
CSCC[C@@H]1NC(=O)[C@@H](NC(=O)[C@H](CCCNC(=N)N)NC(=O)[C@H](CC(C)C)NC(=O)[C@H](CCSC)NC(=O)[C@H](CC(=O)O)NC(=O)[C@H](Cc2ccccc2)NC(=O)[C@@H](N)CC(=O)O)CSSC[C@@H](C(=O)N[C@@H](C)C(=O)N[C@@H](CCC(N)=O)C(=O)N[C@H](C(=O)O)C(C)C)NC(=O)[C@@H]2CCCN2C(=O)[C@H](CCCNC(=N)N)NC(=O)[C@H](Cc2ccc(O)cc2)NC(=O)[C@H](C(C)C)NC(=O)[C@H](CCCNC(=N)N)NC(=O)CNC(=O)[C@H](CC(C)C)NC1=O [compound 54] (H-DFDMLRCMLGRVYRPCAQV-OH; disulfide 7-16; N-terminus and C-terminus assumed)	–	–	–	95	100	–	–	–	–
CSCC[C@@H]1NC(=O)[C@@H](NC(=O)[C@H](CCCNC(=N)N)NC(=O)[C@H](CC(C)C)NC(=O)[C@H](CCSC)NC(=O)[C@H](CC(=O)O)NC(=O)[C@H](Cc2ccccc2)NC(=O)[C@@H](N)CC(=O)O)CSSC[C@@H](C(=O)N[C@@H](Cc2c[nH]c3ccccc23)C(=O)N[C@@H](C)C(=O)N[C@H](C(=O)O)C(C)C)NC(=O)[C@@H]2CCCN2C(=O)[C@H](CCCNC(=N)N)NC(=O)[C@H](Cc2ccc(O)cc2)NC(=O)[C@H](C(C)C)NC(=O)[C@H](CCCNC(=N)N)NC(=O)CNC(=O)[C@H](CC(C)C)NC1=O [compound 55] (H-DFDMLRCMLGRVYRPCWAV-OH; disulfide 7-16; N-terminus and C-terminus assumed)	–	9.5	–	97	99	–	–	–	–
CSCC[C@@H]1NC(=O)[C@@H](NC(=O)[C@H](CCCNC(=N)N)NC(=O)[C@H](CC(C)C)NC(=O)[C@H](CCSC)NC(=O)[C@H](CC(=O)O)NC(=O)[C@H](Cc2ccccc2)NC(=O)[C@@H](N)CC(=O)O)CSSC[C@@H](C(=O)N[C@@H](Cc2c[nH]c3ccccc23)C(=O)N[C@@H](CCC(N)=O)C(=O)N[C@@H](C)C(=O)O)NC(=O)[C@@H]2CCCN2C(=O)[C@H](CCCNC(=N)N)NC(=O)[C@H](Cc2ccc(O)cc2)NC(=O)[C@H](C(C)C)NC(=O)[C@H](CCCNC(=N)N)NC(=O)CNC(=O)[C@H](CC(C)C)NC1=O [compound 56] (H-DFDMLRCMLGRVYRPCWQA-OH; disulfide 7-16; N-terminus and C-terminus assumed)	–	–	–	99	100	–	–	–	–
